Laboratory results: US11896589B2, “Diazinyl amino acridines and medical uses thereof” (MyCural Therapeutics AB, priority 2018, dated 2024)

Test system: Tgr and H0Myc3 Rat1 fibroblast cells
Assay: Assay 5B Tgr cell growth (WST-1), MYC expressing
Format: cell-based, rat
Details: 48 hours
Experimental: FIG. 6: A-B) Neuroblastoma cell lines with (SK-N-DZ, Kelly and IMR-32) or without (SK-N-F1, SK-N-RA and SK-N-AS) MYCN-amplification were exposed to different concentrations of Example 1, Example 2 and control compound, respectively, for 48 hours. Cell growth and viability was estimated by measuring metabolic activity. C) Growth of TGR-1 (wt), HO15.19 (MYC knockout) and HOmyc3 (MYC reconstituted HO15.19) Rat1 fibroblasts, as measured by the WST-1 assay after treatment with Example 1. Data are shown as mean±standard deviation of 3-5 biological experiments, each with 3 technical repeats.
Assay 5B: Tgr Cell Growth
Tgr cells were treated at 37° C. and 5% CO2 at 48 hours with Example and Example 2. H015.19 is a MYC null rat cell line derived from Tgr1 (parental cells), while H0Myc3 cells were generated from the MYC null cells by reconstitution of a MYC gene(Mateyak, M. K., Obaya, A. J., Adachi, S. & Sedivy, J. M. Phenotypes of c-Myc-deficient rat fibroblasts isolated by targeted homologous recombination. Cell Growth Differ 8, 1039-1048 (1997)).

With `CCOc1ccc2nc3cc(/N=N/c4ccc(N)nc4N)ccc3c(N)c2c1` [Example 1, 3-((9-amino-7-ethoxyacridin-3-yl)diazenyl)pyridine-2,6-diamine sulphate hydrate] the “growth of wt and reconstituted cells” value was “strongly inhibited” and the GI50 (Rattus norvegicus, Fibroblast, first run) was 4 µM.
